From US20120177701A1, “COMPOSITIONS COMPRISING IMMUNOSTIMULATORY NUCLEIC ACIDS AND RELATED METHODS” (priority 2010, published 2012)

How the values were obtained:
human TLR3 = target: T1, human TLR3 (Homo sapiens, UniProt O15455); type: cell-based
T1 construct: expressed in transfected cells; host or cells: HEK-Blue hTLR3 (HEK293-derived reporter line)
T1 sequence (O15455 24-904): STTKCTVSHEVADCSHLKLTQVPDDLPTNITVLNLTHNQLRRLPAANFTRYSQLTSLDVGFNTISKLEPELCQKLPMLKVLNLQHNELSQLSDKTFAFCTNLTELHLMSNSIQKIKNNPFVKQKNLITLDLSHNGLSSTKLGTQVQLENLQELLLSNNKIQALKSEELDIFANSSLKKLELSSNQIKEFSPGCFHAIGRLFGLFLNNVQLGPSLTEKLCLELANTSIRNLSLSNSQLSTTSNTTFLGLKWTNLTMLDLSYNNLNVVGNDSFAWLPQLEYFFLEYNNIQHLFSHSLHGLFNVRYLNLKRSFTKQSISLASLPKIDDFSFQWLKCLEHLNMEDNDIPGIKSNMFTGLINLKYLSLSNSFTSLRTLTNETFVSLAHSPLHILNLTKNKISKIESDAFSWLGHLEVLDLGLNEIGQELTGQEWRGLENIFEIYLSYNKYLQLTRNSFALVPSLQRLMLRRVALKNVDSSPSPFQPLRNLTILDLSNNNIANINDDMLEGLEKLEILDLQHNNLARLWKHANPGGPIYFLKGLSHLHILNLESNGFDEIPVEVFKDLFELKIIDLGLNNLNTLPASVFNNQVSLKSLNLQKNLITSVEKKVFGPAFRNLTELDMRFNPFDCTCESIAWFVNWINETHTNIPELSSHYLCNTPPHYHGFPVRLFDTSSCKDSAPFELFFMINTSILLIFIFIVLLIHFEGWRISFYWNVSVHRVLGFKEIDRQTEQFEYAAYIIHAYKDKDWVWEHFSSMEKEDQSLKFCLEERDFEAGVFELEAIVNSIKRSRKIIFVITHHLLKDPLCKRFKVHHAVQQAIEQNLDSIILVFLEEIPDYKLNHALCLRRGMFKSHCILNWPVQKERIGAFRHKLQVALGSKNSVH

[1] = system: primary human lymphocytes; type: cell-based
human TLR9 = target: T2, human TLR9 (Homo sapiens, UniProt Q9NR96); type: cell-based
T2 construct: expressed in transfected cells; host or cells: HEK-Blue hTLR9 (HEK293-derived reporter line)
T2 sequence (Q9NR96 26-1032): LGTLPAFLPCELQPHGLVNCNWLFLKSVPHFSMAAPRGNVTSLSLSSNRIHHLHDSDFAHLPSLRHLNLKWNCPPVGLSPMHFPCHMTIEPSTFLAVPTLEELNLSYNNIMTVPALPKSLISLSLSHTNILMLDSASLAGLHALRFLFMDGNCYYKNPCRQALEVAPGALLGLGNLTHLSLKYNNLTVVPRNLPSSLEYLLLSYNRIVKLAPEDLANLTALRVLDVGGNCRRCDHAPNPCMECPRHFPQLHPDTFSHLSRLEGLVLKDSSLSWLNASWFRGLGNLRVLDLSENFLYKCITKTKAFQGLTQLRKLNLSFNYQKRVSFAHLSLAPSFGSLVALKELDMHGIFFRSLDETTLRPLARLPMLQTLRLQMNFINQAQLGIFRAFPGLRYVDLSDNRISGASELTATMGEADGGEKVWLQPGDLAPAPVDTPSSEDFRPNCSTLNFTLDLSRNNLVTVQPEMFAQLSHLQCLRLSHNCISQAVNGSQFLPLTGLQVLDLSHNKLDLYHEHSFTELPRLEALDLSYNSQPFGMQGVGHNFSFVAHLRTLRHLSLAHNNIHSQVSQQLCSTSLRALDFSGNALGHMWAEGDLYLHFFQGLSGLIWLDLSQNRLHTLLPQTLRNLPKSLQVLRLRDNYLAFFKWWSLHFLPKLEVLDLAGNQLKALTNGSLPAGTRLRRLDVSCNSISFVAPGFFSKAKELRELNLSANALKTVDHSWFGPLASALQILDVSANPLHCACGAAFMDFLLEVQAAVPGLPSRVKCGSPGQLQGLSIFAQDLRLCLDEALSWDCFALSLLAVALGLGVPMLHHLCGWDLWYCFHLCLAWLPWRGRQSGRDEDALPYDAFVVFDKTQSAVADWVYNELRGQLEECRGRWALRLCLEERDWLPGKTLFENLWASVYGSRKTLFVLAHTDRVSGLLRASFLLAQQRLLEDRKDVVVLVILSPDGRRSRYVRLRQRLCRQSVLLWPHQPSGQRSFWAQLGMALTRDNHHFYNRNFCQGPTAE

HEK-Blue™ Null = type: cell-based, human
J774 murine macrophages = assay: TNF-α induction in mouse macrophage cell line J774; type: cell-based
Protocol: Induction of TNF-α by macrophages is a hallmark of human TLR8 activation (Forsbach et al., 2008, J. Immunol., 180:3729-38; Ghosh et al., 2007, Int. Immunopharmacol., 7:1111-21; Gorden et al., 2005, J. Immunol., 174:1259-68). […] In the following experiment mouse macrophage cell line, J774, has been transfected by test ribonucleotides as described above for HEK-Blue™ hTLR8 cells (with the exception that 2-10×10^4 cells/well were used) and TNF-α was measured in culture supernatants at 16-20 hours after transfection.

human TLR8 = target: T3, human TLR8 (Homo sapiens, UniProt Q9NR97); assay: HEK-Blue hTLR8 NF-kB-inducible SEAP reporter assay (TLR8 activation); type: cell-based
T3 construct: host or cells: HEK293 (HEK-Blue hTLR8) with NF-kB-inducible SEAP reporter
T3 sequence (Q9NR97 27-1041): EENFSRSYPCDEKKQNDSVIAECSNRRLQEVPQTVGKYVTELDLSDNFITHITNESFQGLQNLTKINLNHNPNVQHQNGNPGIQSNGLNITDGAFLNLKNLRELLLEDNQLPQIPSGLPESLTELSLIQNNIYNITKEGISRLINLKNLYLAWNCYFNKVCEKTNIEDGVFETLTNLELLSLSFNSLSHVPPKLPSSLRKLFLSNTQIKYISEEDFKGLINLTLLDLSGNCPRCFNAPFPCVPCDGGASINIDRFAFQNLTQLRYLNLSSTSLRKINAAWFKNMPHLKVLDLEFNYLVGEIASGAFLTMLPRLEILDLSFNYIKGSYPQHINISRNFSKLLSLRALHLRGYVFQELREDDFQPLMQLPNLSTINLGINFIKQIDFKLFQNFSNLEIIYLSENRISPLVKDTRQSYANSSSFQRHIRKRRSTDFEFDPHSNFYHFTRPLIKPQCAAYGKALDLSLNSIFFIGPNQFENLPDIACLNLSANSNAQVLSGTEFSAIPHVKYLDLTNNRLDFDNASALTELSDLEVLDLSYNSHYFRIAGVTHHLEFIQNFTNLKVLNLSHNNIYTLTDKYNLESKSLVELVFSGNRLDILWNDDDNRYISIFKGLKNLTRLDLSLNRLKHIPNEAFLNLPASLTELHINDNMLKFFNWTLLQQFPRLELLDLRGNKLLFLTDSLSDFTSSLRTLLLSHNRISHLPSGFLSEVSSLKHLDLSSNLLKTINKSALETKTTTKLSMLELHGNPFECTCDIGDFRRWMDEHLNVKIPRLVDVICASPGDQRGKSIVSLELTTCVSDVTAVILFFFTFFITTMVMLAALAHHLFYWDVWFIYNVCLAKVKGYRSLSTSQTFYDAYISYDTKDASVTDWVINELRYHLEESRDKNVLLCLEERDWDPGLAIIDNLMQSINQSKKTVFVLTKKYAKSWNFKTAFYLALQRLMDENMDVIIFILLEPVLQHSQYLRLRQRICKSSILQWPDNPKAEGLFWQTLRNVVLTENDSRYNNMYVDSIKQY

5′-AAGAAGAAAUAGAUUUAUUUUUAAAUUUUUGUGU-3′ [SL-0005]
activation of SEAP expression (human TLR3): No activation of SEAP expression | 11-12(p40) induction [1]: significant levels | IFNγ induction [1]: significant levels | IL-4 induction (Th2-type cytokine) [1]: insignificant | IL-5 induction (Th2-type cytokine) [1]: insignificant | IL-6 induction [1]: significant levels | IL-10 induction [1]: significant levels | IL-23 induction [1]: significant levels | TNFα induction [1]: significant levels | activation of SEAP expression (human TLR9): No activation of SEAP expression | activation of SEAP expression (HEK-Blue™ Null): No activation of SEAP expression | TNF-α induction, described in words (J774 murine macrophages): strongly induced TNF-α expression, to the level seen when R-0006 was used | TLR8 activation (fold increase of SEAP induction over the background), described in words (human TLR8): stronger levels of TLR8 activation | concentration at which TLR8 activation was detected starting (human TLR8): 40 nM
